According to PubChem BioAssay AID602328 (NMMLSC, 2012):
The source made the active and inactive calls. No rule for the calls is given here.

Biological target: Botulinum neurotoxin type A (Clostridium botulinum (strain Hall / ATCC 3502 / NCTC 13319 / Type A)) (UniProt P0DPI1)
Assay: BoNT/A light chain protease inhibitors, dose response, biochemical, multiplex microsphere flow cytometry, cherry pick 02 (AID 602328)
Conditions: BoNT/A LC substrate cleavage

Chain of Botulinum neurotoxin type A (Clostridium botulinum (strain Hall / ATCC 3502 / NCTC 13319 / Type A)) (P0DPI1 whole entry, looked up): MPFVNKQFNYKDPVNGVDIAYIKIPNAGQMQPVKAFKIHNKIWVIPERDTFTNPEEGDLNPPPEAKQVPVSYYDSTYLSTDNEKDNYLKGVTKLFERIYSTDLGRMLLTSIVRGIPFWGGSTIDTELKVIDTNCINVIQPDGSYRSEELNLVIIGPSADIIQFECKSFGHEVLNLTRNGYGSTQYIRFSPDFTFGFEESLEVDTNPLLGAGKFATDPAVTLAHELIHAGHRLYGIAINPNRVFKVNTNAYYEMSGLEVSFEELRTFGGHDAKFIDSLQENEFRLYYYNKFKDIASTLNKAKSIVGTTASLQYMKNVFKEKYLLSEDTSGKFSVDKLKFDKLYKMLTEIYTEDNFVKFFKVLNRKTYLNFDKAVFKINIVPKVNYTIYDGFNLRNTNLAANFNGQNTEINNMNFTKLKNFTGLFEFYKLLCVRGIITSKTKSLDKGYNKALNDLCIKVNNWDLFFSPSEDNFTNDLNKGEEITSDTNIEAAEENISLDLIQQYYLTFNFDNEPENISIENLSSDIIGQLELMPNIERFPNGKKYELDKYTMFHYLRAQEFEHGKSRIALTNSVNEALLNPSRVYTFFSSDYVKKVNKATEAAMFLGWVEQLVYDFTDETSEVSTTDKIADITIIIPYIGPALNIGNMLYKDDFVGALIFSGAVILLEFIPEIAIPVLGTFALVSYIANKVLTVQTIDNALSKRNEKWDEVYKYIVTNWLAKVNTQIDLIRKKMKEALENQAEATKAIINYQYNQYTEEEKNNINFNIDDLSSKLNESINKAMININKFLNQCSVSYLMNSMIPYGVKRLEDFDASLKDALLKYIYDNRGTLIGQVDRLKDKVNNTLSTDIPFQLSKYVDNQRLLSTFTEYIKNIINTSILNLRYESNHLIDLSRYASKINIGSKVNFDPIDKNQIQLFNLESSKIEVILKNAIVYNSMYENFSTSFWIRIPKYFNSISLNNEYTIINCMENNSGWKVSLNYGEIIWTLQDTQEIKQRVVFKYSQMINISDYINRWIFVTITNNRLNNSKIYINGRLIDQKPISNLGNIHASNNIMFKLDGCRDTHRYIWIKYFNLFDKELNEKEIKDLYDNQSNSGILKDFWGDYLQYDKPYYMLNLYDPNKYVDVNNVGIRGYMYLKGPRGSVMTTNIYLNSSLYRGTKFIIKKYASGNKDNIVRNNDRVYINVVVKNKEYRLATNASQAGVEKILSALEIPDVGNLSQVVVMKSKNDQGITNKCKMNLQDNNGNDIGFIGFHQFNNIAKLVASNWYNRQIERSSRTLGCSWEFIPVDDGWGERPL

## Oc1[nH]c(N=C2N=c3ccccc3=N2)c2ccccc12
  IC50: > 20 µM (inactive)

## O=c1c(/C=C(\O)c2ccccc2)nc2ccccc2n1-c1ccccc1
  IC50: > 20 µM (inactive)
